The results in this text go back to publication PMC9295256 (Journal of medicinal chemistry, 2021).

Square brackets hold non-standard residues; d marks the D form. Peptide text beside a SMILES is read from it. * marks the point of attachment. Boc = CC(C)(C)OC(=O)*

One test deals with recombinant rat Nln (Rattus norvegicus, UniProt P42676). In words: Nln activation, continuous quenched fluorescence substrate. The test is classed as biochemical.
Chain of recombinant rat Nln (P42676 38-704): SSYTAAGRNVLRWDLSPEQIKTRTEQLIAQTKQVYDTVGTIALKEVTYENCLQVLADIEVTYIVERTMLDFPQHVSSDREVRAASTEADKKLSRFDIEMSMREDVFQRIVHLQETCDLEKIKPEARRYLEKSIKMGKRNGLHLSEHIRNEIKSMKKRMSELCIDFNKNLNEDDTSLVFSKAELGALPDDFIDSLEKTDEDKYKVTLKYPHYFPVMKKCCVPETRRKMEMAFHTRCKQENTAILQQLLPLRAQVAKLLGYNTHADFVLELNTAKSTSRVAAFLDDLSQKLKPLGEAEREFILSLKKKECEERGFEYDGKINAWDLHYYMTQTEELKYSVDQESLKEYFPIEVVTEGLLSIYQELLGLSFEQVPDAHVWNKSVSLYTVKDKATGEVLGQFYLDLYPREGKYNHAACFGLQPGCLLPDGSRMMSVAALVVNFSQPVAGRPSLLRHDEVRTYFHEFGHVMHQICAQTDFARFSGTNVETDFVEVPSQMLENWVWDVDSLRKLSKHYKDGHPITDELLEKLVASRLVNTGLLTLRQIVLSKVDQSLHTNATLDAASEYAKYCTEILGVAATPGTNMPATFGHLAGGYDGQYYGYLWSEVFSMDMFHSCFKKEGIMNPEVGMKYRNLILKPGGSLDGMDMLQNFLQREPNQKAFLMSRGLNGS
Details: not given
Consider `N[C@@H](Cc1cnc[nH]1)C(=O)N[C@@H](Cc1ccc(O)cc1)C(=O)O` [Compound 1, His–Tyr] (H-His-Tyr-OH), for which the “Amax, maximum % activation achieved (95% CI)” value (from here on “Amax … (95% CI)”) was 465.2 (440.2 to 492.3) %.

Take `N[C@@H](Cc1c[nH]cn1)C(=O)N[C@@H](Cc1c[nH]cn1)C(=O)O` [Compound 2, His–His]: the “Amax … (95% CI)” value was 498.1 (481 to 516.5) %. Same read-out and setting: under `N[C@@H](Cc1cnc[nH]1)C(=O)N[C@@H](Cc1ccccc1)C(=O)O` [Compound 3, His–Phe] (H-His-Phe-OH) stands 442.3 (418.8 to 467.6) %. For the compound `N[C@@H](Cc1ccc(O)cc1)C(=O)N[C@H](Cc1c[nH]cn1)C(=O)O` [Compound 4a, H-Tyr-His-OH], the “Nln activation, result in words” value is listed as “complete amelioration of Nln activation”. `CC(C)(C)OC(=O)N[C@@H](Cc1ccc(O)cc1)C(=O)N[C@H](Cc1ccccc1)C(=O)O` [Compound 4b] (Boc-Tyr-[dF]-OH): the “Nln activation, result in words” value was “inactive”. Regarding `N[C@@H](Cc1c[nH]cn1)C(=O)NCCc1ccc(C(F)(F)F)cc1` [Compound 4k, (S)-2-Amino-3-(1H-imidazol-4-yl)-N-(4-(trifluoromethyl)-phenethyl)propanamide], the “Amax … (95% CI)” value is listed as 299.4 (283.9 to 316.2) %. Turning to `N[C@H](Cc1c[nH]cn1)C(=O)NCCc1ccc(C(F)(F)F)cc1` [Compound 4l, (R)-2-Amino-3-(1H-imidazol-4-yl)-N-(4-(trifluoromethyl)-phenethyl)propanamide], the “Amax … (95% CI)” value is listed as 330.1 (313.9 to 347.7) %. In the case of `N[C@@H](Cc1c[nH]cn1)C(=O)NCCc1ccc([N+](=O)[O-])cc1` [Compound 4o, (S)-2-Amino-3-(1H-imidazol-4-yl)-N-(4-nitrophenethyl)-propanamide], the “Amax … (95% CI)” value is on record as 282.4 (266.5 to 299.5) %.

Regarding `N[C@H](Cc1c[nH]cn1)C(=O)NCCc1ccc([N+](=O)[O-])cc1` [Compound 4p, (R)-2-Amino-3-(1H-imidazol-4-yl)-N-(4-nitrophenethyl)-propanamide], the “Amax … (95% CI)” value was 267.5 (250.1 to 287.1) %. The same measure, in the same setting: in the case of `N[C@@H](Cc1c[nH]cn1)C(=O)NCCc1ccc(-c2ccccc2)cc1` [Compound 4q, (S)-N-(2-([1,1′-Biphenyl]-4-yl)ethyl)-2-amino-3-(1H-imidazol-4-yl)propanamide] it was 258.2 (244 to 273.4) %; in that of `N[C@H](Cc1c[nH]cn1)C(=O)NCCc1ccc(-c2ccccc2)cc1` [Compound 4r, (R)-N-(2-([1,1′-biphenyl]-4-yl)ethyl)-2-amino-3-(1H-imidazol-4-yl)propanamide], 269.7 (256.8 to 283.4) %. Consider `N[C@@H](Cc1c[nH]cn1)C(=O)NCc1ccccc1` [Compound 5a, (S)-2-Amino-N-benzyl-3-(1H-imidazol-4-yl)propanamide], for which the “Amax … (95% CI)” value was 152.2 (137.3 to 171.5) %.

In the case of `COc1ccc(CNC(=O)[C@@H](N)Cc2c[nH]cn2)cc1` [Compound 5b, (S)-2-Amino-3-(1H-3l4-imidazol-4-yl)-N-(4-methoxybenzyl)-propanamide], the “Amax … (95% CI)” value is recorded as 428.8 (373 to 523.5) %. On the same count and under the same terms, in the case of `COc1ccc(CNC(=O)[C@H](N)Cc2cnc[nH]2)cc1` [Compound 5c, (R)-2-Amino-3-(1H-imidazol-4-yl)-N-(4-methoxybenzyl)-propanamide] it was 703.5 (588.9 to 915.6) %.

As for `COc1ccccc1CNC(=O)[C@@H](N)Cc1c[nH]cn1` [Compound 5d, (S)-2-Amino-3-(1H-3l4-imidazol-4-yl)-N-(2-methoxybenzyl)-propanamide], the “Amax … (95% CI)” value was 385.8 (363.8 to 410.5) %.

Turning to `COc1ccccc1CNC(=O)[C@H](N)Cc1c[nH]cn1` [Compound 5e, (R)-2-Amino-3-(1H-3l4-imidazol-4-yl)-N-(2-methoxybenzyl)-propanamide], the “Amax … (95% CI)” value was 324.9 (304 to 349) %. As for `COc1cccc(CNC(=O)[C@@H](N)Cc2c[nH]cn2)c1` [Compound 5f, (S)-2-Amino-3-(1H-3l4-imidazol-4-yl)-N-(3-methoxybenzyl)-propanamide], the “Amax … (95% CI)” value is listed as 327.5 (309.7 to 348.2) %.

Regarding `COc1cccc(CNC(=O)[C@H](N)Cc2cnc[nH]2)c1` [Compound 5g, (R)-2-Amino-3-(1H-3l4-imidazol-4-yl)-N-(3-methoxybenzyl)-propanamide], the “Amax … (95% CI)” value is reported as 477.1 (444 to 516) %. Still for that read-out and setting: under `N[C@H](Cc1c[nH]cn1)C(=O)NCc1ccc(C(F)(F)F)cc1` [Compound 5i, (R)-2-Amino-3-(1H-imidazol-4-yl)-N-(4-(trifluoromethyl)benzyl)-propanamide] stands 319.1 (296.3 to 344.3) %; under `N[C@H](Cc1c[nH]cn1)C(=O)NCc1ccccc1C(F)(F)F` [Compound 5k, (R)-2-Amino-3-(1H-imidazol-4-yl)-N-(2-(trifluoromethyl)benzyl)-propanamide], 345.8 (317.5 to 378.3) %; under `N[C@H](Cc1c[nH]cn1)C(=O)NCc1cccc(C(F)(F)F)c1` [Compound 5m, (R)-2-Amino-3-(1H-imidazol-4-yl)-N-(3-(trifluoromethyl)benzyl)-propanamide], 282 (258.4 to 309.1) %.

For the compound `N[C@@H](Cc1c[nH]cn1)C(=O)NCc1ccc(F)cc1` [Compound 5n, (S)-2-Amino-N-(4-fluorobenzyl)-3-(1H-imidazol-4-yl)-propanamide], the “Amax … (95% CI)” value was 293 (276.5–310.7) %.

For the compound `N[C@H](Cc1c[nH]cn1)C(=O)NCc1ccc(F)cc1` [Compound 5o, (R)-2-Amino-N-(4-fluorobenzyl)-3-(1H-imidazol-4-yl)-propanamide], the “Amax … (95% CI)” value is given as 320.5 (299.7 to 343.9) %.

Staying with this test, now noted: 100% = normal enzyme turnover; mean of n = 4, 95% CI in parentheses.
Turning to `NC(Cc1c[nH]cn1)C(=O)NCCc1c[nH]c2ccccc12` (racemic) [(rac)-9a, (rac)-N-(2-(1H-Indol-3-yl)ethyl)-2-amino-3-(1H-imidazol-4-yl)-propanamide], the “Amax … (95% CI)” value was 197 (177.5 to 222.8) %. As to `CC(C)(C)OC(=O)N[C@@H](Cc1ccc(O)cc1)C(=O)N[C@H](Cc1ccccc1)C(=O)O` [Compound 4b] (Boc-Tyr-[dF]-OH), the “Amax … (95% CI)” value was “Inactive”.

On to `N[C@@H](Cc1c[nH]cn1)C(=O)NCCc1ccccc1` [Compound 4c, (S)-2-Amino-3-(1H-imidazol-4-yl)-N-phenethylpropanamide], for which the “Amax … (95% CI)” value is recorded as 337.2 (302 to 378.6) %.

As for `N[C@H](Cc1c[nH]cn1)C(=O)NCCc1ccccc1` [Compound 4d, (R)-2-Amino-3-(1H-imidazol-4-yl)-N-phenethylpropanamide], the “Amax … (95% CI)” value is 294.6 (278.0 to 313) %. Still for that read-out and setting: under `COc1ccc(CCNC(=O)[C@@H](N)Cc2c[nH]cn2)cc1` [Compound 4e, (S)-2-Amino-3-(1H-imidazol-4-yl)-N-(4-methoxyphenethyl)-propanamide] stands 339.4 (314.2 to 369.3) %; under `COc1ccc(CCNC(=O)[C@H](N)Cc2c[nH]cn2)cc1` [Compound 4f, (R)-2-Amino-3-(1H-imidazol-4-yl)-N-(4-methoxyphenethyl)-propanamide], 378.3 (350.5 to 411.9) %; under `COc1cccc(CCNC(=O)[C@H](N)Cc2c[nH]cn2)c1` [Compound 4j, (R)-2-Amino-3-(1H-imidazol-4-yl)-N-(3-methoxyphenethyl)-propanamide], 255.3 (230.5 to 284.8) %.

The same test, now with this note: recombinant rat Nln, QFS 15 μM, 37 °C; mean of n = 4, 95% CI in parentheses.
In the case of `CC(C)(C)OC(=O)N[C@@H](Cc1ccc(O)cc1)C(=O)N[C@H](Cc1ccccc1)C(=O)O` [Compound 4b] (Boc-Tyr-[dF]-OH), the “A50, half maximal activation concentration (95% CI)” value was “Inactive”.
